Read-outs that look alike come from different tables or passages of the source.
Tests used:
Type in all cases: binding
HLA-A*02:01 [1] = biological target: T1, HLA-A*02:01 (Homo sapiens, UniProt P04439, D140Y/D185E/D98H/E176V/E277Q/G131W/G231S/I119V/I121R/I166T/I218V/L300P/L318F/N151K/N90K/P208A/P217A/Q86G/Q94H/R138H/R169H/T345S); settings: plate-bound monomer 0.5 µg/ml, duplicated experiments, positive binder >40%
HLA-A*68:01 [2] = biological target: T2, HLA-A*68:01 (Homo sapiens, UniProt P04439, A269V/D185E/E176V/E277Q/E87N/F33Y/G231S/I121M/I166T/I218V/L180W/L300P/L318F/N151K/P208A/P217A/Q86R/R169H/T345S); settings: duplicated experiments, positive binder >40%
HLA-A*02:01 [3] = biological target: T1, HLA-A*02:01; settings: peptide quantity for 50% binding saturation
HLA-A*30:02 [4] = biological target: T3, HLA-A*30:02 (Homo sapiens, UniProt P04439, D101N/D140H/D185E/E176R/F33S/G80R/H175R/K168Q/Q94H/R138E/R41S/V100E); settings: duplicated experiments, positive binder >40%
HLA-A*30:02 [5] = biological target: T3, HLA-A*30:02; settings: time points 0-8 h
HLA-A*30:02 [6] = biological target: T3, HLA-A*30:02
HLA-A*02:01 [7] = biological target: T1, HLA-A*02:01; settings: time points 0-8 h; time when 50% of peptide has dissociated
HLA-B*07:02 = HLA-B*07:02 (Homo sapiens, UniProt P01889); settings: percent relative the binding of positive control peptide […]; duplicated experiments; positive binder >40%
HLA-A*24:02 [8] = biological target: T4, HLA-A*24:02 (Homo sapiens, UniProt P04439, D101N/D140Y/D185E/E176V/E190D/F33S/G103R/G107R/I119L/I121M/I306V/K335N/L105A/L180Q/L300P/N151K/N90K/Q86E/Q94H/R106L/R138H/R89G/T104I/T345S/V100E/W191G/Y123F); settings: duplicated experiments, positive binder >40%
HLA-B*58:01 [9] = biological target: T5, HLA-B*58:01 (Homo sapiens, UniProt P01889, A329T/C349S/D201E/D98Y/E176V/E187L/E204Q/E69T/G107R/I218V/I90N/K202T/L105A/L119I/N104I/N87E/Q89R/Q94S/R106L/R155S/R180L/R86G/S101N/S121R/S35A/S48A/T118I/V127L/V306I/V36M/Y140S/Y91M); settings: duplicated experiments, positive binder >40%
HLA-A*30:01 = HLA-A*30:01 (Homo sapiens, UniProt P04439, D140H/D185E/E176W/F33S/G80R/H175R/K168Q/R138E/R41S); settings: duplicated experiments, positive binder >40%
HLA-C*07:01 = HLA-C*07:01 (Homo sapiens, UniProt P10321, K90N/S123Y); settings: duplicated experiments, positive binder >40%
HLA-A*68:01 [10] = biological target: T2, HLA-A*68:01; settings: time points 0-8 h
HLA-B*58:01 [11] = biological target: T5, HLA-B*58:01
HLA-B*58:01 [12] = biological target: T5, HLA-B*58:01; settings: time points 0-8 h
HLA-A*68:01 [13] = biological target: T2, HLA-A*68:01
HLA-A*24:02 [14] = biological target: T4, HLA-A*24:02; settings: time points 0-8 h
HLA-A*24:02 [15] = biological target: T4, HLA-A*24:02
[16] = percent relative the binding of positive control peptide […]
[17] = percent relative the binding of positive control peptide RYLKDQQLL
[18] = percent relative the binding of positive control peptide IAMESIVIW
[19] = percent relative the binding of positive control peptide FLPSDFFPSV
[20] = percent relative the binding of positive control peptide KTGGPIYKR
[21] = percent relative the binding of positive control peptide KTKDIVNGL
[22] = percent relative the binding of positive control peptide KYFDEHYEY
[23] = peptide titrated 10−4 to 10−9 M
[24] = percent relative the binding of positive control peptide KIQNFRVYY

Substance	Bind A*02:01 (HLA-A*02:01 [1]; [16])	Aff A*02:01 (ED50) (HLA-A*02:01 [3]; […])	Bind A*30:02 (HLA-A*30:02 [4]; [16])	O-rate A*30:02 (t1/2) (HLA-A*30:02 [5])	O-rate A*02:01 (t1/2) (HLA-A*02:01 [7])	Bind B*07:02 (HLA-B*07:02)	Bind A*24:02 (HLA-A*24:02 [8]; [16])	Bind A*24:02 (HLA-A*24:02 [8]; [17])	Bind B*58:01 (HLA-B*58:01 [9]; [18])	Bind A*02:01 (HLA-A*02:01 [1]; [19])	Bind A*68:01 (HLA-A*68:01 [2]; [20])	Bind A*30:01 (HLA-A*30:01; [21])	Bind C*07:01 (HLA-C*07:01; [22])	Aff A*02:01 (ED50) (HLA-A*02:01 [3]; [23])	Bind A*30:02 (HLA-A*30:02 [4]; [24])	other results
HSMSSTHEA [Rv0288_70–78m1]	45%	0.001 M	39%	0.9 h	0.3 h											Bind A*68:01 (HLA-A*68:01 [2]; [16]): 0%; Aff A*30:02 (ED50) (HLA-A*30:02 [6]): 0.006 µM
SQIMYNYPT [Rv0288_2–10m1]	47%	1e-06 M	31%	0.5 h	0.7 h											Aff A*30:02 (ED50) (HLA-A*30:02 [6]): 4 µM
GLSIVMPVG	100%	7e-08 M	0%		2.1 h	0%	0%									Bind B*58:01 (HLA-B*58:01 [9]; [16]): 0%; Bind A*68:01 (HLA-A*68:01 [2]; [16]): 0%; Bind A*30:01 (HLA-A*30:01; [16]): 0%; Bind C*07:01 (HLA-C*07:01; [16]): 0%
KLAAAWGGS [Rv3875_38-46]					2 h	6%		33%	21%	57%	0%	0%	11%	1e-07 M	39%	
GT HSWEYWG	43%	2E -06 M	79%	2.2 h	0.3 h	3%	2%									O-rate A*68:01 (t1/2) (HLA-A*68:01 [10]): 0.2 h; Aff B*58:01 (ED50) (HLA-B*58:01 [11]): 0.3 µM; O-rate B*58:01 (t1/2) (HLA-B*58:01 [12]): 2.9 h; Bind B*58:01 (HLA-B*58:01 [9]; [16]): 58%; Bind A*68:01 (HLA-A*68:01 [2]; [16]): 71%; Bind A*30:01 (HLA-A*30:01; [16]): 0%; Bind C*07:01 (HLA-C*07:01; [16]): 25%; Aff A*30:02 (ED50) (HLA-A*30:02 [6]): 30 µM; Aff A*68:01 (ED50) (HLA-A*68:01 [13]): 1E -05 M
AMLDHAGDM [Rv0288_10–18m2]	47%	8e-08 M	100%	0.4 h	1.1 h		13%									Aff A*30:02 (ED50) (HLA-A*30:02 [6]): 0.7 µM
ALQNLARTI [Rv3875_68–76]					1.7 h	8%		0%	0%	73%	0%	0%	0%	3e-08 M	17%	
LLDEGKQSL [Rv3875_28–36]					4.9 h	3%		0%	2%	61%	4%	20%	19%	7e-07 M	0%	
F EW YYQSG L	124%	7e-07 M	26%		0.8 h	11%	37%									Bind B*58:01 (HLA-B*58:01 [9]; [16]): 0%; Bind A*68:01 (HLA-A*68:01 [2]; [16]): 10%; Bind A*30:01 (HLA-A*30:01; [16]): 10%; Bind C*07:01 (HLA-C*07:01; [16]): 15%
NLARTISEA [Rv3875_71–79]					2.3 h	10%		11%	21%	72%	9%	15%	12%	4e-08 M	17%	
GYAGTLQNL [Rv0288_20–28m1]							68%									O-rate A*24:02 (t1/2) (HLA-A*24:02 [14]): 0.3 h; Aff A*24:02 (ED50) (HLA-A*24:02 [15]): 0.1 µM
VQQKWDATA [Rv3875_54–62]				1.6 h	1.2 h	9%		0%	12%	54%	0%	21%	9%	5e-09 M	76%	Aff A*30:02 (ED50) (HLA-A*30:02 [6]; [23]): 0.06 µM
AMASTEGNV [Rv3875_82–90]				2.5 h	1.0 h	11%		0%	0%	87%	0%	0%	3%	3e-08 M	102%	Aff A*30:02 (ED50) (HLA-A*30:02 [6]; [23]): 0.007 µM
IQGNVTSIH [Rv3875_18–26]					0.2 h	3%		0%	7%	51%	17%	13%	5%	1e-06 M	36%	
MLDHAGDMA [Rv0288_11–19m1]	48%	6e-08 M			1.5 h											

Reference: publication PMC3608651, “A Broad Profile of Co-Dominant Epitopes Shapes the Peripheral Mycobacterium tuberculosis Specific CD8+ T-Cell Immune Response in South African Patients with Active Tuberculosis” (PLoS ONE, 2013)
